Data published in US8158670B2 (priority 1996, dated 2012).
“Also recorded” adds a separate entry of the source.

What was measured:
[1] = system: target (BO54 and M14) and non-target (HT29) cells; format: cell-based
[2] = system: Vascular smooth muscle (BO54) cells; format: cell-based, baboon
[3] = system: vascular smooth muscle cells of balloon-traumatized arteries; format: in vivo, pig; conditions: pig, in vivo
[4] = system: vascular smooth muscle cells; experiment: In vitro DNA (3H-thymidine) and protein (3H-leucine) synthesis inhibition; format: cell-based; conditions: 24 hour assays, 5% FBS
Description: The ability of various therapeutic agents to inhibit DNA synthesis and protein synthesis in vascular smooth muscle cells was tested. ^3H-leucine and ^3H-thymidine uptake and cytotoxicity assays were conducted in accordance with the following protocols.
5 minute exposure: ^3H-leucine uptake: Vascular smooth muscle cells at 40,000 cells/ml were seeded in sterile 24 well plates at 1 ml/well. The plates were incubated overnight at 37° C., 5% CO2, 95% air in a humidified atmosphere (saturation). Log dilutions of the therapeutic agent of interest were incubated with the vascular smooth muscle cells for 5 minutes or 24 hours. […] Vials were counted on a Beckman LS2800 liquid scintillation counter interfaced with Beckman “Data Capture” software for conversion to a Lotus 1-2-3® file and analysis using Lotus 1-2-3®.
5 minute exposure: ^3H-thymidine uptake: Vascular smooth muscle cells were incubated in complete medium with 5% FBS (Gibco) overnight at 37° C. in a humidified, 5% CO2 environment in sterile 24 well plates. […] The cells were visually scored for viability and cell number. […] Vials were counted on a Beckman LS2800 liquid scintillation counter interfaced with Beckman “Data Capture” software for conversion to a Lotus 1-2-3® file and analysis using Lotus 1-2-3®.

Pseudomonas exotoxin [PE]
metabolic activity measured in the MTT assay [1]: nonspecific cytotoxicity

CC(=O)O[C@@H]1/C=C\[C@@](C)(O)C(=O)[C@@H](C)C/C=C\[C@H]2[C@H](O)C(C)=C(C)[C@H]3C(Cc4ccccc4)NC(=O)[C@]132 (stereo partly shown) [cytochalasin C]
minimum effective dose (MED) [2]: 0.01 µg/mL

CN[C@@H]1C[C@H]2O[C@@](C)([C@@H]1OC)n1c3ccccc3c3c4c(c5c6ccccc6n2c5c31)C(=O)NC4 [staurosporin]
BRDU uptake (cell proliferation) [3]: inhibits target cell proliferation; also recorded: inhibited BRDU uptake (i.e., cell proliferation) without killing the vascular smooth muscle cells | therapeutic range: 3H-leucine (protein synthesis) versus 3H-thymidine (DNA synthesis) inhibition [4]: exhibits a differential between ^3H-leucine and ^3H-thymidine uptake
